In article PMC6429507, “Triterpene-Based Carboxamides Act as Good Inhibitors of Butyrylcholinesterase” (Molecules, 2019):
Where two headings read alike, the source gives them in different places.

Experiments:
[1] = target: acetylcholinesterase (AChE, electric eel) (Electrophorus electricus, UniProt O42275); conditions: for Type of Inhibition / Ki' (uncompetitive inhibition) / Ki: AChE, electric eel; for Ki' (uncompetitive inhibition) / Grade of inhibition in% AChE / Ki: mean ± SE; for Ki: read-out: Ki (competitive inhibition)
Chain of acetylcholinesterase (AChE, electric eel) (O42275 24-633): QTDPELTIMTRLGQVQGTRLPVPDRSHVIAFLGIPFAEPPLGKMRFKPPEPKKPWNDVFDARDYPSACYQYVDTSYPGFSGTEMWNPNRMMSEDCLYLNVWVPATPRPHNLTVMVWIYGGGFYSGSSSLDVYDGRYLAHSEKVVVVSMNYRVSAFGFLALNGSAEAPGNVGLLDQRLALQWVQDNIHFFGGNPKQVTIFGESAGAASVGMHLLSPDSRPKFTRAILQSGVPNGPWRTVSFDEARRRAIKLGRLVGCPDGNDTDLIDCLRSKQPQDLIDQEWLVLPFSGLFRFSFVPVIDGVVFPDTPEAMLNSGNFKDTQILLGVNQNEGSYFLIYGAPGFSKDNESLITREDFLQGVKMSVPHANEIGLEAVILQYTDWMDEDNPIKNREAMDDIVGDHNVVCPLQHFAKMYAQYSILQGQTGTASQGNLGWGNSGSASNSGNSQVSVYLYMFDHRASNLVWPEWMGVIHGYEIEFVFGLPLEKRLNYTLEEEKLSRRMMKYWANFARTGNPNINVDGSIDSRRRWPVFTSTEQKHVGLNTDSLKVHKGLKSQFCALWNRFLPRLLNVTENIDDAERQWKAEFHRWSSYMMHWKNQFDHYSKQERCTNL
Excerpt: (§1) In this study, carboxamides with different triterpenoic backbones (ursolic, oleanolic, maslinic, betulinic, and platanic acids), and various amine residues (Scheme 1), were investigated.
(§2) A TECAN SpectraFluorPlus working in the kinetic mode and measuring the absorbance at λ = 415 nm was used for the enzymatic studies. Acetylcholinesterase (from Electrophorus electricus), 5,5′-dithiobis-(2-nitrobenzoic acid) (DTNB) and acetylthiocholine iodide were purchased from Sigma. Butyrylcholinesterase (from equine serum) was purchased from Fluka. Preparation of the solutions, assay procedure, as well as molecular modeling conditions can be found in the Supplementary Materials.
(§3) 3.1 Preparation of the solutions
(§4) Preparation of 50 mM Tris-HCl buffer solutions: Tris(hydroxymethyl)-aminomethane (606 mg) was dissolved in bidestilled water (100 mL) and adjusted with HCl to a pH of 8.0 ± 0.1. Buffers were freshly prepared and stored in the refrigerator. AChE solution 2.005 U/mL: the enzyme (271 U/mg, 0.037 mg) was dissolved in freshly prepared buffer pH 8.0 (5 mL) containing NaN3 (0.98 mg). BChE solution 2.040 U/mL: the enzyme (7.54 U/mg, 1.353 mg) was dissolved in freshly prepared buffer pH 8.0 (5 mL) containing NaN3 (0.98 mg). DTNB solution 3 mM: DTNB (23.8 mg) was dissolved in freshly prepared buffer pH 8.0 (20 mL) containing NaCl (116.8 mg) and MgCl2 (38.0 mg). ATChI solution 15 mM:
(§5) ATChI (43.4 mg) was dissolved in bidestilled water (10 mL). All solutions were stored in Eppendorf caps in the refrigerator or in the freezer, if necessary. The pure compounds were […]
(§6) dissolved in bidistilled water. The final concentrations for the enzymatic assay were obtained by diluting the stock solution with bidistilled water.
(§7) A mixture of the DTNB solution (125 µL), enzyme solution (25 µL) and compounds solutions (25 µL, 3 different concentrations and once blank water) was prepared and incubated at 30 °C for 20 min. The substrate (25 µL, 4 different concentrations) was added to start the enzymatic reaction. The absorbance data (l = 415 nm) was recorded under a controlled temperature of 30 °C for 30 min at 1 min intervals. The substrate concentrations in the test were as follows: […]
(§8) determined as the quotient of the slopes (compound divided by blank) of the linear ranges.
(§9) The used substrate concentration was 0.625 mM. The absorbance data was recorded under a controlled temperature of 30 °C for 10 min.

[2] = target: T1, butyrylcholinesterase (BChE, equine serum) (Equus caballus, UniProt P81908); test: Ellman's assay, butyrylcholinesterase inhibition; format: biochemical; conditions: for Grade of inhibition in% BChE: mean ± SE
T1 construct: Butyrylcholinesterase (from equine serum) was purchased from Fluka; purchased Fluka; host or cells: equine serum
T1 sequence (P81908 whole entry): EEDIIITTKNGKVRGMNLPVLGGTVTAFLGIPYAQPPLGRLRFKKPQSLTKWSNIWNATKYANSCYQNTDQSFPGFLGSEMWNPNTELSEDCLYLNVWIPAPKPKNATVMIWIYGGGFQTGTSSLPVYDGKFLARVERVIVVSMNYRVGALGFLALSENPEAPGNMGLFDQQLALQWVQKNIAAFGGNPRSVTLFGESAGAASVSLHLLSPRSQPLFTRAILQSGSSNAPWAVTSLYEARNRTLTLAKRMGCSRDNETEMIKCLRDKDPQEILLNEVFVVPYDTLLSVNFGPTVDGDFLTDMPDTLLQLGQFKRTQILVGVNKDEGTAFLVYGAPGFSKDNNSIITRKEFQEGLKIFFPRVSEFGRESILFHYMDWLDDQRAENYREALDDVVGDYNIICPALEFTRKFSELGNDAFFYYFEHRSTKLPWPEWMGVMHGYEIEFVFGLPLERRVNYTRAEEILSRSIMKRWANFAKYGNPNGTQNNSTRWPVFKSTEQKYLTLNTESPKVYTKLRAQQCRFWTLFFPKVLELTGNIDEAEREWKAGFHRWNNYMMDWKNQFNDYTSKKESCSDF
Excerpt: as §1, §2, §3, §4, §5, §6, §7, §8, §9

[3] = BChE, equine serum, Ellman's assay
[4] = BChE, equine serum, Ellman's assay, read-out: Ki (competitive inhibition)
[5] = experimental Ki restated in docking Table 3, unit inferred, read-out: Ki

Row | Compound | Type of Inhibition [1] | Ki' (uncompetitive inhibition) [1] [µM] | Grade of inhibition in% AChE ([1]; c = 30 µM) [%] | Ki [1] [µM] | Type of Inhibition ([2]; BChE, equine serum) | Ki′ (uncompetitive inhibition) [2, 3] [µM] | Ki [2, 4] [µM] | Grade of inhibition in% BChE ([2]; c = 30 µM) [%] | Grade of inhibition in% AChE ([1]; c = 10 µM) [%] | Grade of inhibition in% BChE ([2]; c = 10 µM) [%] | Ki [2, 5] [µM] | selectivity F (percent inhibition for AChE divided by percent inhibition for BChE) ([2]; towards BChE)
1 | CC(=O)[C@@H]1CC[C@]2(C(=O)NCCN3CCCC3)CC[C@]3(C)[C@H](CC[C@@H]4[C@@]5(C)CC[C@H](O)C(C)(C)[C@@H]5CC[C@]43C)[C@@H]12 [Compound 40] | mixed-type | 23.63 ± 0.39 | 33.06 ± 0.45 | 27.9 ± 2.99 | mixed-type | > 10 | 0.45 ± 0.01 | 89.15 ± 0.44 | – | – | – | –
2 | CC(=O)[C@@H]1CC[C@]2(C(=O)NCCN)CC[C@]3(C)[C@H](CC[C@@H]4[C@@]5(C)CC[C@H](O)C(C)(C)[C@@H]5CC[C@]43C)[C@@H]12 [Compound 20] | mixed-type | 9.71 ± 0.03 | – | 7.18 ± 0.02 | mixed-type | > 110 | 8.37 ± 0.67 | – | 37.09 ± 0.97 | 12.98 ± 0.35 | – | –
3 | CN(C)CCNC(=O)[C@]12CCC(C)(C)C[C@H]1C1=CC[C@@H]3[C@@]4(C)C[C@@H](O)[C@H](O)C(C)(C)[C@@H]4CC[C@@]3(C)[C@]1(C)CC2 [Compound 28, (2α,3β)-N-[2-(Dimethylamino)-ethyl]-2,3-dihydroxy-olean-12-en-28-amide] | – | – | 13.47 ± 0.55 | – | mixed-type | 27.26 ± 3.47 | 2.2 ± 0.25 | 79.01 ± 0.29 | – | – | – | –
4 | C=C(C)C1CC[C@]2(C(=O)NCCN3CCCC3)CC[C@]3(C)C(CCC4[C@@]5(C)CC[C@H](OC(C)=O)C(C)(C)C5CC[C@]43C)C12 (some centres unmarked) [Compound 34] | – | – | – | – | mixed-type | > 5 | 0.39 ± 0.04 | – | 44.15 ± 0.32 | 71.56 ± 0.54 | 0.39 | –
5 | C=C(C)C1CC[C@]2(C(=O)NCCN)CC[C@]3(C)C(CCC4[C@@]5(C)CC[C@H](OC(C)=O)C(C)(C)C5CC[C@]43C)C12 (some centres unmarked) [Compound 14] | – | – | – | – | – | – | – | – | 56.17 ± 0.64 | 42.70 ± 1.33 | – | –
6 | CC(=O)OC1CC2(C)C(CCC3(C)C2CC=C2C4CC(C)(C)CCC4(C(=O)NCCN)CCC23C)C(C)(C)C1OC(C)=O (stereo not drawn) [Compound 13, (2α,3β)-N-(2-Aminoethyl)-2,3-diacetyloxy-olean-12-en-28-amide] | – | – | – | – | – | – | – | – | 31.91 ± 0.32 | 40.83 ± 0.21 | – | –
7 | CC(=O)O[C@H]1CC[C@]2(C)[C@H]3CC[C@@H]4[C@H]5[C@H](C(C)=O)CC[C@]5(C(=O)NCCN)CC[C@@]4(C)[C@]3(C)CC[C@H]2C1(C)C [Compound 15] | mixed-type | 6.83 ± 0.17 | – | 3.06 ± 0.38 | mixed-type | 17.14 ± 1.67 | 11.9 ± 1.17 | – | 44.71 ± 0.24 | 29.55 ± 2.97 | – | –
8 | CC1(C)CCC2(C(=O)NCCN)CCC3(C)C(=CCC4C5(C)CC(O)C(O)C(C)(C)C5CCC43C)C2C1 (stereo not drawn) [Compound 18, (2α,3β)-N-(2-Aminoethyl)-2,3-dihydroxy-olean-12-en-28-amide] | – | – | 39.15 ± 0.16 | – | – | – | – | 68.83 ± 1.57 | – | – | – | –
9 | CC1(C)CC[C@]2(C(=O)NCCN3CCCCC3)CC[C@]3(C)C(=CC[C@@H]4[C@@]5(C)CC[C@H](O)C(C)(C)[C@@H]5CC[C@]43C)[C@@H]2C1 [Compound 47, (3β)-N-(2-Piperidin-1-ylethyl)-3-hydroxy-olean-12-en-28-amide] | – | – | 38.65 ± 0.29 | – | mixed-type | 10.42 ± 1.36 | 1.57 ± 0.01 | 74.89 ± 0.04 | – | – | – | –
10 | CC(=O)[C@@H]1CC[C@]2(C(=O)NCCN(C)C)CC[C@]3(C)[C@H](CC[C@@H]4[C@@]5(C)CC[C@H](O)C(C)(C)[C@@H]5CC[C@]43C)[C@@H]12 [Compound 30] | mixed-type | 74.05 ± 4.81 | 28.83 ± 0.80 | 15.5 ± 3.91 | mixed-type | 4.46 ± 0.01 | 1.12 ± 0.01 | 89.76 ± 0.48 | – | – | – | –
11 | CC(=O)OC1CCC2(C)C(CCC3(C)C2CC=C2C4CC(C)(C)CCC4(C(=O)NCCN)CCC23C)C1(C)C (stereo not drawn) [Compound 12, (3β)-N-(2-Aminoethyl)-3-acetyloxy-olean-12-en-28-amide] | – | – | 31.69 ± 0.04 | – | – | – | – | 57.54 ± 0.93 | – | – | – | –
12 | C=C(C)C1CC[C@]2(C(=O)NCCN3CCCCC3)CC[C@]3(C)C(CCC4[C@@]5(C)CC[C@H](OC(C)=O)C(C)(C)C5CC[C@]43C)C12 (some centres unmarked) [Compound 44] | – | – | 22.78 ± 0.85 | – | – | – | – | 33.83 ± 0.43 | – | – | – | –
13 | CC1(C)CCC2(C(=O)NCCN3CCCC3)CCC3(C)C(=CCC4C5(C)CC(O)C(O)C(C)(C)C5CCC43C)C2C1 (stereo not drawn) [Compound 38, (2α,3β)-N-(2-Pyrrolidin-1-ylethyl)-2,3-dihydroxy-olean-12-en-28-amide] | – | – | 23.33 ± 0.22 | – | mixed-type | 14.15 ± 2.42 | 2.06 ± 0.03 | 77.49 ± 0.10 | – | – | – | –
14 | CC(=O)O[C@H]1CC[C@@]2(C)C(CC[C@]3(C)C2CC=C2C4[C@@H](C)[C@H](C)CC[C@]4(C(=O)NCCN4CCCC4)CC[C@]23C)C1(C)C (some centres unmarked) [Compound 31] | – | – | – | – | mixed-type | 6.00 ± 0.47 | 4.42 ± 0.34 | – | 14.54 ± 0.36 | 50.49 ± 2.23 | 4.42 | –
15 | CC1(C)CCC2(C(=O)NCCN3CCCCC3)CCC3(C)C(=CCC4C5(C)CC(O)C(O)C(C)(C)C5CCC43C)C2C1 (stereo not drawn) [Compound 48, (2α,3β)-N-(2-Piperidin-1-ylethyl)-2,3-dihydroxy-olean-12-en-28-amide] | – | – | – | – | mixed-type | 6.21 ± 0.47 | 2.26 ± 0.05 | – | 9.32 ± 0.29 | 69.30 ± 1.12 | – | –
16 | CC(=O)OC1CC2(C)C(CCC3(C)C2CC=C2C4CC(C)(C)CCC4(C(=O)NCCN4CCCCC4)CCC23C)C(C)(C)C1OC(C)=O (stereo not drawn) [Compound 43, (2α,3β)-N-(2-Piperidin-1-ylethyl)-2,3-diacetyloxy-olean-12-en-28-amide] | – | – | 23.30 ± 0.10 | – | – | – | – | 53.47 ± 3.47 | – | – | – | –
17 | CC(=O)O[C@H]1CC[C@]2(C)[C@H]3CC[C@@H]4[C@H]5[C@H](C(C)=O)CC[C@]5(C(=O)NCCN5CCCC5)CC[C@@]4(C)[C@]3(C)CC[C@H]2C1(C)C [Compound 35, (3β)-N-(2-pyrrolidin-1-ylethyl)-3-acetyloxy-20-oxo-30-norlupan-28-amide] | – | – | 19.97 ± 0.13 | – | mixed-type | 2.38 ± 0.48 | 0.07 ± 0.01 | 94.60 ± 0.02 | – | – | 0.07 | ≈ 0.21
